Publication PMC10313671, “Accelerating the prediction and discovery of peptide hydrogels with human-in-the-loop” (Nature Communications, 2023)
Where a SMILES comes first, the peptide text is derived from it.

What was measured:
[1] = Transmission electron microscope (negative staining) of peptide assemblies; conditions: for Morphology: TEM, negative staining with uranyl acetate, 120 kV
Experimental: We used the negative staining technique to observe the morphologies formed by peptides. A micropipette was used to load 10 μL of sample solution to a carbon-coated copper grid, and we used a piece of filter paper to remove the excess solution. After rinsing the grid with the deionized water, we used uranyl acetate to stain the sample for 1 minute and then rinsed the grid with deionized water again.

[2] = Peptide hydrogel formation, vial-inverting method; format: physicochemical; set-up: key to EXP / GELATION: 0: no hydrogel; 1: hydrogel; conditions: for State: ultrasonication, standing 48 h; for State / GELATION / hydrogel formation (in words): vial-inverting method; for Concentration: concentration at which the state was recorded: lowest of 30, 60, 90, 120 mM that gave a gel, 120 mM for non-gelating peptides; for GELATION: 1 = hydrogel, 0 = no hydrogel; for hydrogel formation (in words): representative hydrogels pH between 7.0 to 7.5
Experimental: After validating the efficiency of APHC in predicting tetrapeptide hydrogels, we detailed the phase state of 165 synthesized tetrapeptides and the observed assembly behavior in an aqueous solution.
This work defines hydrogel formation as a self-supporting, non-flowing mixture of water and hydrogelator by the vial-inverting method. All purified tetrapeptides were dissolved in ultrapure water (to form a 30 mM solution initially), followed by the stepwise addition of 1 N NaOH solution to adjust the overall aqueous pH to 6.5–8.5. Meanwhile, a short-term ultrasonication treatment was applied after each pH adjustment to facilitate peptide solubilization and speed up peptide self-assembly. […] The mixture was allowed to stand in for another 48 h for complete hydrogelation. Upon the absence of gelation phenomenon during the aforementioned loops, we increased the peptide concentration (60 mM, 90 mM, and 120 mM were selected) and re-started such gelation operation loop to explore their gelation feasibility.

[3] = 120 mM peptide (highest tested) in ultrapure water, pH 6.5-8.5 (1 N NaOH), precipitate, sol, suspension = no gel
[4] = 30 mM peptide in ultrapure water, pH adjusted to 6.5-8.5 with 1 N NaOH, concentration raised 30/60/90/120 mM until gelation
[5] = 60 mM peptide in ultrapure water, pH 6.5-8.5 (1 N NaOH), no gel at 30 mM

Row | Compound | Morphology ([1]; line of the table gives 120 mM) | State [2, 3] | Concentration [2] [µM] | GELATION ([2]; peptide concentration 120 mM) | Morphology ([1]; line of the table gives 30 mM) | State [2, 4] | GELATION ([2]; peptide concentration 30 mM) | other results
1 | CC(C)C[C@H](N)C(=O)NCC(=O)N[C@H](C(=O)N[C@@H](Cc1ccccc1)C(=O)O)C(C)C [LGVF] (H-LGVF-OH) | fibre | sol | 120000 | 0 |  |  |  | 
2 | CSCC[C@H](NC(=O)[C@@H](N)Cc1ccccc1)C(=O)N[C@@H](CC(C)C)C(=O)N[C@@H](Cc1ccccc1)C(=O)O [FMLF] (H-FMLF-OH) |  |  | 30000 |  | sheet | gel | 1 | 
3 | C[C@H](NC(=O)[C@@H](N)Cc1ccc(O)cc1)C(=O)N[C@@H](Cc1ccc(O)cc1)C(=O)N[C@@H](Cc1ccc(O)cc1)C(=O)O [YAYY] (H-YAYY-OH) | aggregates | sol | 120000 | 0 |  |  |  | 
4 | CC(C)[C@H](N)C(=O)N[C@@H](Cc1ccc(O)cc1)C(=O)N[C@H](C(=O)N[C@@H](Cc1ccccc1)C(=O)O)[C@@H](C)O [VYTF] (H-VYTF-OH) | particle | sol | 120000 | 0 |  |  |  | 
5 | CC[C@H](C)[C@H](NC(=O)[C@@H](NC(=O)[C@@H](N)Cc1ccccc1)C(C)C)C(=O)N[C@@H](Cc1ccc(O)cc1)C(=O)O [FVIY] (H-FVIY-OH) |  |  | 30000 |  |  | gel | 1 | morphology by TEM (in words) ([1]; aqueous solution or hydrogel, negative staining): entangled nanofibers; hydrogel formation (in words) [2]: hydrogels
6 | CC(C)C[C@H](N)C(=O)N[C@@H](Cc1ccccc1)C(=O)N[C@@H](Cc1c[nH]c2ccccc12)C(=O)N[C@@H](CO)C(=O)O [LFWS] (H-LFWS-OH) | sphere | gel | 120000 | 1 |  |  |  | 
7 | CC(C)C[C@H](NC(=O)[C@H](CC(C)C)NC(=O)[C@@H](N)CC(C)C)C(=O)N[C@@H](Cc1ccc(O)cc1)C(=O)O [LLLY] (H-LLLY-OH) |  |  | 30000 |  | hybrid(sphere+fibre) | gel | 1 | 
8 | CC(C)C[C@H](NC(=O)[C@H](Cc1ccccc1)NC(=O)[C@@H](N)CS)C(=O)N[C@@H](Cc1c[nH]c2ccccc12)C(=O)O [CFLW] (H-CFLW-OH) | aggregates | suspension | 120000 | 0 |  |  |  | 
9 | CSCC[C@H](N)C(=O)N[C@H](C(=O)N[C@@H](CCC(N)=O)C(=O)NCC(=O)O)C(C)C [MVQG] (H-MVQG-OH) | aggregates | suspension | 120000 | 0 |  |  |  | 
10 | CC(C)[C@H](NC(=O)[C@@H]1CCCN1)C(=O)N[C@@H](Cc1ccccc1)C(=O)N[C@@H](Cc1ccc(O)cc1)C(=O)O [PVFY] (H-PVFY-OH) |  |  | 30000 |  | needle | gel | 1 | 
11 | CC[C@H](C)[C@H](NC(=O)[C@H](C)NC(=O)[C@@H](NC(=O)[C@@H](N)CC(C)C)C(C)C)C(=O)O [LVAI] (H-LVAI-OH) |  |  | 60000 |  |  |  |  | Morphology ([1]; line of the table gives 60 mM): fibre; State [2, 5]: gel; GELATION ([2]; peptide concentration 60 mM): 1
12 | N[C@@H](Cc1c[nH]c2ccccc12)C(=O)N1CCC[C@H]1C(=O)N[C@@H](Cc1ccc(O)cc1)C(=O)N[C@@H](Cc1ccc(O)cc1)C(=O)O [WPYY] (H-WPYY-OH) | sphere | precipitate | 120000 | 0 |  |  |  | hydrogel formation (in words) [2]: cannot
13 | NCC(=O)NCC(=O)NCC(=O)NCC(=O)O [GGGG] (H-GGGG-OH) | aggregates | sol | 120000 | 0 |  |  |  | 
14 | N[C@@H](CO)C(=O)N[C@@H](Cc1ccc(O)cc1)C(=O)N[C@@H](Cc1ccccc1)C(=O)N[C@@H](Cc1ccccc1)C(=O)O [SYFF] (H-SYFF-OH) |  |  | 30000 |  | fibre | gel | 1 | 
15 | N[C@@H](Cc1c[nH]c2ccccc12)C(=O)N[C@@H](Cc1c[nH]c2ccccc12)C(=O)N[C@@H](CS)C(=O)N1CCC[C@H]1C(=O)O [WWCP] (H-WWCP-OH) | aggregates | precipitate | 120000 | 0 |  |  |  | hydrogel formation (in words) [2]: cannot
16 | N[C@@H](Cc1ccccc1)C(=O)N[C@@H](Cc1ccccc1)C(=O)N[C@@H](Cc1ccc(O)cc1)C(=O)N[C@@H](Cc1ccc(O)cc1)C(=O)O [FFYY] (H-FFYY-OH) |  |  | 30000 |  | needle | gel | 1 | 
17 | O=C(O)[C@H](CS)NC(=O)[C@H](Cc1c[nH]c2ccccc12)NC(=O)[C@H](Cc1c[nH]c2ccccc12)NC(=O)[C@@H]1CCCN1 [PWWC] (H-PWWC-OH) | aggregates | suspension | 120000 | 0 |  |  |  | 
18 | CSCC[C@H](NC(=O)[C@H](CCSC)NC(=O)[C@H](Cc1ccccc1)NC(=O)[C@@H](N)Cc1c[nH]c2ccccc12)C(=O)O [WFMM] (H-WFMM-OH) |  |  | 30000 |  | fibre | gel | 1 | 
19 | C[C@@H](O)[C@H](NC(=O)[C@@H](N)CS)C(=O)N[C@@H](Cc1ccc(O)cc1)C(=O)N[C@@H](Cc1ccccc1)C(=O)O [CTYF] (H-CTYF-OH) |  |  | 30000 |  | fibre | gel | 1 | 
20 | N[C@@H](Cc1ccccc1)C(=O)N[C@@H](Cc1ccccc1)C(=O)N[C@@H](Cc1ccccc1)C(=O)N[C@@H](Cc1ccccc1)C(=O)O [FFFF] (H-FFFF-OH) |  |  | 30000 |  | sheet | gel | 1 | 
21 | CC(C)[C@H](NC(=O)[C@H](Cc1ccc(O)cc1)NC(=O)[C@H](CO)NC(=O)[C@@H](N)Cc1ccccc1)C(=O)O [FSYV] (H-FSYV-OH) |  |  | 60000 |  |  |  |  | Morphology ([1]; line of the table gives 60 mM): aggregates; State [2, 5]: gel; GELATION ([2]; peptide concentration 60 mM): 1
22 | CSCC[C@H](NC(=O)[C@@H](N)Cc1ccccc1)C(=O)N[C@@H](Cc1ccc(O)cc1)C(=O)N[C@@H](CO)C(=O)O [FMYS] (H-FMYS-OH) | aggregates | sol | 120000 | 0 |  |  |  | 
23 | NCCCC[C@H](NC(=O)[C@H](Cc1ccccc1)NC(=O)[C@H](Cc1ccccc1)NC(=O)[C@@H](N)CCC(=O)O)C(=O)O [EFFK] (H-EFFK-OH) | aggregates | sol | 120000 | 0 |  |  |  | 
24 | CC(C)C[C@H](NC(=O)[C@H](C)NC(=O)[C@@H](N)CC(=O)O)C(=O)N[C@H](C(=O)O)C(C)C [DALV] (H-DALV-OH) | aggregates | suspension | 120000 | 0 |  |  |  | 
25 | CC[C@H](C)[C@H](NC(=O)[C@H](CC(C)C)NC(=O)[C@@H](NC(=O)[C@@H](N)CC(C)C)C(C)C)C(=O)O [LVLI] (H-LVLI-OH) |  |  | 30000 |  | sheet | gel | 1 | 
26 | CCCC [tetrapeptide] | sphere | suspension | 120000 | 0 |  |  |  | 
